The text below walks through data of US9783527B2, “Indazole ureas and method of use” (AbbVie Inc., priority 2014, dated 2017).

In one assay the target is human Nav1.8 (Homo sapiens (Human), UniProt Q9Y5Y9). Kind of assay: FRET-based membrane potential assay, recombinant human sodium channel Nav1.8. Particulars: HEK293 cells stably expressing recombinant human Nav1.8; depolarization with veratridine (EC80) + scorpion venom. The class given is cell-based. The protocol:
FRET-Based Membrane Potential Assays.
Recombinant, Human Sodium Channel, Nav1.8.
Two days prior to the experiment, frozen HEK293 cells stably expressing recombinant human Nav1.8 (Essen, Ann Arbor, Mich.) were quickly thawed and plated at 22,500 cells/well in growth medium [MEM (Invitrogen #11095) with 10% FBS (Invitrogen #10082), 1 mM sodium pyruvate (Invitrogen, #C11360), 10 units/mL penicillin/10 U/mL streptomycin/29.2 μg/mL glutamine ((PSG 1%, Invitrogen #10378), 400 μg/mL zeocin (Invitrogen #R250) in black-walled, clear-bottom 384-well poly-D-lysine-coated assay plates (Greiner Bio-One, Frickenhausen, Germany) and incubated in a humidified 5% CO2 incubator at 37° C. On the day of the assay, medium was removed by aspiration, and cells were washed with assay buffer [HBSS (Invitrogen, Carlsbad, Calif.) containing 20 mM HEPES (Invitrogen, Carlsbad, Calif.)]. After washing, 30 μL assay buffer containing the fluorescent voltage-sensor probe CC2-DMPE (Invitrogen, Carlsbad, Calif.) at 20 μM and 0.01% pluronic F-127 (Invitrogen, Carlsbad, Calif.) was added to the cells. Cells were incubated for 40 minutes at room temperature in the dark. Following the incubation, the cells were washed and 30 μL assay buffer containing 2.5 μM DiSBAC2(3) substrate (Invitrogen, Carlsbad, Calif.) and 0.5 mM VABSC-1 (Invitrogen, Carlsbad, Calif.) was added to the cells. The cells were incubated for 60 minutes at room temperature in the dark. Fluorescence readings were made using a FLIPR®^TETRA (Molecular Devices, Sunnyvale Calif.) equipped with voltage-sensor probe optics. The depolarizing agent, veratridine (Sigma-Aldrich, St. Louis, Mo.), was made up at 3× concentrations in assay buffer containing 1 mg/mL scorpion venom (SVqq, from Leiurus quinquestriatus; Sigma-Aldrich, St. Louis, Mo.). The assay agonist/opener concentration was determined each day using a 6-point veratridine concentration curve in duplicate, tested with three concentrations of tetracaine (0.1, 0.06, 0.01 μM all in 0.03% dimethyl sulfoxide) and 0.03% dimethyl sulfoxide control in assay buffer. […] Test compounds in the daughter plate were diluted to (˜3×) solutions in assay buffer immediately before assaying. Using the FLIPR®^TETRA, 20 μL of the (3×) compound solutions were first added to the cells, then 20 μL of depolarizing solution (3×EC80 veratridine+SVqq) were added 3 minutes later to activate the channel. Changes in fluorescence were measured at wavelengths of 440-480 nm and 565-625 nm over the course of the experimental run. Membrane depolarization was expressed as a ratio of the maximum F440-480 nm/F565-625 nm reading above average baseline F440-480 nm/F565-625 nm reading. IC50 values were calculated from curve fits of the ratio data using a four-parameter logistic Hill equation (Accelrys Assay Explorer 3.3 Client, Accelrys, San Diego, Calif.) with percent inhibition plotted against compound concentration.

The next assay has as its target human Nav1.7 (Homo sapiens (Human), UniProt Q15858). Put plainly: FRET-based membrane potential assay, recombinant human sodium channel Nav1.7. Particulars: HEK293 cells stably expressing recombinant human Nav1.7; depolarization with veratridine (EC80) + scorpion venom. The class given is cell-based. In outline: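 IC50 derived by four-parameter Hill fit of percent inhibition of depolarization, measured as peak F440-480/F565-625 ratio over baseline. Stable human Nav1.7 HEK293 cells, dye-loaded with CC2-DMPE and DiSBAC2(3)/VABSC-1 at room temperature, received compound 3 min ahead of veratridine (EC80) plus scorpion venom.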

For orientation: pIC50 means the IC50 on a negative log10 scale, so that one unit is a factor of ten.

pIC50: −log10 of the molar value.

human Nav1.7, sequence (Q15858 whole entry): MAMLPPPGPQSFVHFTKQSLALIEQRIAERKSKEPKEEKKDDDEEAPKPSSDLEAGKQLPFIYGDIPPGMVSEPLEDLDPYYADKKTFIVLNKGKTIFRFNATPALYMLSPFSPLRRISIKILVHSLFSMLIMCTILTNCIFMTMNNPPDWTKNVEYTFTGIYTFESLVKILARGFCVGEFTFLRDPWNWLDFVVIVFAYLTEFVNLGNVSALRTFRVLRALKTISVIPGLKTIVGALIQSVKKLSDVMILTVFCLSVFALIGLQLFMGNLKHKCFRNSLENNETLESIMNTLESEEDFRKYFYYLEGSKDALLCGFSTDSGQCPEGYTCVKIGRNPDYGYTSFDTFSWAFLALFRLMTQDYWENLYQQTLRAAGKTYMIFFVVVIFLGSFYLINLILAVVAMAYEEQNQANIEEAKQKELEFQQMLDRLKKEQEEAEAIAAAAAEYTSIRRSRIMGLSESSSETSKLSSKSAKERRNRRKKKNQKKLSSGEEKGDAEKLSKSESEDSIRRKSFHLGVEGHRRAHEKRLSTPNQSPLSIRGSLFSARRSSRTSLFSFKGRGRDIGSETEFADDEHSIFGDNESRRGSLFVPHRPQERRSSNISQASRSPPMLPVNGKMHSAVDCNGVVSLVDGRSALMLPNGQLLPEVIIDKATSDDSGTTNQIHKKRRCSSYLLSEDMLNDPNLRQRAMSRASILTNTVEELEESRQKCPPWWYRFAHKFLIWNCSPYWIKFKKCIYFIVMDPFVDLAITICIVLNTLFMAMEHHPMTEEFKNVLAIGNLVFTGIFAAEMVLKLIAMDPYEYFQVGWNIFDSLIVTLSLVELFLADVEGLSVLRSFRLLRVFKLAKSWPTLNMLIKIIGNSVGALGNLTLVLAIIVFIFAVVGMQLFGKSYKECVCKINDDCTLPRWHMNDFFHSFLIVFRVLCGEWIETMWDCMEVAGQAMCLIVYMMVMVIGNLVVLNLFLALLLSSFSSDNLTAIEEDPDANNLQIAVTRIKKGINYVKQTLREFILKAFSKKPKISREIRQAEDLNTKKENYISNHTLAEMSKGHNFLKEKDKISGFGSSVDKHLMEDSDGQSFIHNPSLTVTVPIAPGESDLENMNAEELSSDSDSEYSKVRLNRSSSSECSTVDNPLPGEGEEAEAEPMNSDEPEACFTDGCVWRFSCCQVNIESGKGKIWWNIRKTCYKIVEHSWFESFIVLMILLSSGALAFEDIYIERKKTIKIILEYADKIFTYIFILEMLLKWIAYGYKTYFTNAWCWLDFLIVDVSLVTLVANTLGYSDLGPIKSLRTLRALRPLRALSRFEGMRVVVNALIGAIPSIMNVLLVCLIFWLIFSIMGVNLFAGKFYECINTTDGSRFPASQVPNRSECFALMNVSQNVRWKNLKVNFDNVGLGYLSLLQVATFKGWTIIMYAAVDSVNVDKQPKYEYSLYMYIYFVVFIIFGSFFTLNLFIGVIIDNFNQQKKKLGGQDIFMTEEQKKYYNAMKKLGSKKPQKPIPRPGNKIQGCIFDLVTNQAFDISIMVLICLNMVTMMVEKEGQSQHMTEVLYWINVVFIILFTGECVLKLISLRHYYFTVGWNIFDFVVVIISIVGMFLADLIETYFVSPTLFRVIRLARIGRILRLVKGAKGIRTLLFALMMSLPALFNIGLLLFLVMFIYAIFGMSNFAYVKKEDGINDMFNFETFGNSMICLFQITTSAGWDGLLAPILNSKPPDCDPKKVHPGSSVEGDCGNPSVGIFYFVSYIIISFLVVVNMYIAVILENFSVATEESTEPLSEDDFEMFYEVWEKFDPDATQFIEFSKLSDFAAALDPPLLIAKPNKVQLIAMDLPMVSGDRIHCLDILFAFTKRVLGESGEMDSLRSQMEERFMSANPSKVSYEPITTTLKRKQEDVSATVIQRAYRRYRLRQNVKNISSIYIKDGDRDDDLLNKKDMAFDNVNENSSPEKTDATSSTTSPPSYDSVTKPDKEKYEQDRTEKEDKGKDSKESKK
human Nav1.8, sequence (Q9Y5Y9 whole entry): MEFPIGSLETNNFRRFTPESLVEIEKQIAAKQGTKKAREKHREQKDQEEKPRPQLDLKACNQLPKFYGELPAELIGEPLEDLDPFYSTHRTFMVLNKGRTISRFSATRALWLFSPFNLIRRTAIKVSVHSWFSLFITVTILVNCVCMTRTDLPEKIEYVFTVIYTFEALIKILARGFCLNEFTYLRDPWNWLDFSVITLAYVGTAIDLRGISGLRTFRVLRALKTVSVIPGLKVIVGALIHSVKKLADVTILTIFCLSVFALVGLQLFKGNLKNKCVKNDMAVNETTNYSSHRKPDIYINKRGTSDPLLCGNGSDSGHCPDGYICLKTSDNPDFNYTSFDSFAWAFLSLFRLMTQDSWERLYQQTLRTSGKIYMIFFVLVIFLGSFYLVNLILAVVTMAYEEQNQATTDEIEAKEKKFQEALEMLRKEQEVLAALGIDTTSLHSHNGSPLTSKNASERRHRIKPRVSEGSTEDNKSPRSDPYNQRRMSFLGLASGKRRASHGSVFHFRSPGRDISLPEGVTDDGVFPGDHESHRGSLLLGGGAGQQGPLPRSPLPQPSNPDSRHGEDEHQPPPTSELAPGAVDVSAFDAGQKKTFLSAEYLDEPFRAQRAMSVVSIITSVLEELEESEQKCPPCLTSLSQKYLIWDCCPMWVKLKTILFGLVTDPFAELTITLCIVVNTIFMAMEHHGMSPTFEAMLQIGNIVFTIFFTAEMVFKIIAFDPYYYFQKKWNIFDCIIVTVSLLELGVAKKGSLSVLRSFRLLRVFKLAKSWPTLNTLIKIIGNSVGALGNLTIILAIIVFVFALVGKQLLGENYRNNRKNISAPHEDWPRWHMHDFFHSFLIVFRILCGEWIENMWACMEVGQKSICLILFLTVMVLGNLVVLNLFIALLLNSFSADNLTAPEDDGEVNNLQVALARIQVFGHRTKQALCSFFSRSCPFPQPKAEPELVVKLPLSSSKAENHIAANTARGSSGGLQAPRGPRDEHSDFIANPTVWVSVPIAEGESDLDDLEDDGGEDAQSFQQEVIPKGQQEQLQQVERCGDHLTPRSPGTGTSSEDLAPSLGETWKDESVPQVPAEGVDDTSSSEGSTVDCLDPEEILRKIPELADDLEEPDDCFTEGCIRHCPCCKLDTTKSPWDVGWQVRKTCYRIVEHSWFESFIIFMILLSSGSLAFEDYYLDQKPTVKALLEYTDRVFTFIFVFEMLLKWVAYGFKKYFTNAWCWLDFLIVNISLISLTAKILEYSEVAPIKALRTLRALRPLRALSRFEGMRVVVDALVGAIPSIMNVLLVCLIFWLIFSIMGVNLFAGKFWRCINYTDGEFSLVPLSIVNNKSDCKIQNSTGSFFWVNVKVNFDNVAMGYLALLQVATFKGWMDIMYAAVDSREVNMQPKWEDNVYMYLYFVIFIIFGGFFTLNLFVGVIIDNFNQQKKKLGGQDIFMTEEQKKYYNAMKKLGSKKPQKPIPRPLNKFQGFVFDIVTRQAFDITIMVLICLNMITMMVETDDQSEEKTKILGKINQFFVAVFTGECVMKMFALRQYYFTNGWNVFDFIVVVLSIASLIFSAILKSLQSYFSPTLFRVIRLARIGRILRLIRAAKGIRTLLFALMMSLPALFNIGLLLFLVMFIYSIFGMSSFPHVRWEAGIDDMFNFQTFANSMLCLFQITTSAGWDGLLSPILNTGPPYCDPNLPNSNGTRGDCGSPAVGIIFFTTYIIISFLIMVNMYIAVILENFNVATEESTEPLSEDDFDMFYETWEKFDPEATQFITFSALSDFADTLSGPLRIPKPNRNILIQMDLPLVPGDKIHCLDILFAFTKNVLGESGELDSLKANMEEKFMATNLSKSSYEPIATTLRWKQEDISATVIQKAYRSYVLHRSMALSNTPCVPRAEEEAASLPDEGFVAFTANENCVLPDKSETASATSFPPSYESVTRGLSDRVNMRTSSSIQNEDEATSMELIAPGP

Take `O=C(CN1CCN(c2cccc3c2cnn3-c2ccccc2F)C1=O)N1CC2(COC2)C1` [Example 100, 1-[1-(2-fluorophenyl)-1H-indazol-4-yl]-3-[2-(2-oxa-6-azaspiro[3.3]hept-6-yl)-2-oxoethyl]imidazolidin-2-one]: the pIC50 on human Nav1.8 is 4.70; on human Nav1.7, 5.30.

Consider `CCCS(=O)(=O)N1CC(N2CCN(c3cccc4c3cnn4-c3ccccc3F)C2=O)C1` [Example 274, 1-[1-(2-fluorophenyl)-1H-indazol-4-yl]-3-[1-(propylsulfonyl)azetidin-3-yl]imidazolidin-2-one], for which the pIC50 is 5.85 on human Nav1.8 and 5.56 on human Nav1.7.

In the case of `O=C1N(c2cccc3c2cnn3-c2ccccc2F)CCN1[C@H]1CCCC[C@@H]1OCc1ccccc1` [Example 275, 1-[(1S,2S)-2-(benzyloxy)cyclohexyl]-3-[1-(2-fluorophenyl)-1H-indazol-4-yl]imidazolidin-2-one], the pIC50 was 5.43 at human Nav1.8 and 5.85 on human Nav1.7.

In the case of `O=C1N(c2cccc3c2cnn3-c2ccccc2F)CCN1[C@H]1CCCC[C@@H]1O` [Example 276, 1-[1-(2-fluorophenyl)-1H-indazol-4-yl]-3-[(1S,2S)-2-hydroxycyclohexyl]imidazolidin-2-one], the negative logarithm of the IC50 (pIC50) at human Nav1.8 was 5.19; on human Nav1.7, 4.82.

Regarding `CO[C@H]1CCCC[C@@H]1N1CCN(c2cccc3c2cnn3-c2ccccc2F)C1=O` [Example 279, 1-[1-(2-fluorophenyl)-1H-indazol-4-yl]-3-[(1S,2S)-2-methoxycyclohexyl]imidazolidin-2-one], the pIC50 on human Nav1.8 is 5.25; on human Nav1.7 it was 5.73.

In the case of `CC(C)CO[C@H]1CCCC[C@@H]1N1CCN(c2cccc3c2cnn3-c2ccccc2F)C1=O` [Example 280, 1-[1-(2-fluorophenyl)-1H-indazol-4-yl]-3-[(1S,2S)-2-isobutoxycyclohexyl]imidazolidin-2-one], the values for the pIC50 at human Nav1.8 and at human Nav1.7 were 4.97 and 6.29, respectively.

In the case of `O=C1CCCC[C@@H]1N1CCN(c2cccc3c2cnn3-c2ccccc2F)C1=O` [Example 281, 1-[1-(2-fluorophenyl)-1H-indazol-4-yl]-3-[(1S)-2-oxocyclohexyl]imidazolidin-2-one], the pIC50 on human Nav1.8 is 4.91; on human Nav1.7 it was 4.94.

For the compound `O=C1N(c2cccc3c2cnn3-c2ccccc2F)CCN1C1CN(S(=O)(=O)CC2CC2(Cl)Cl)C1` (stereo not drawn) [Example 282, 1-(1-{[(2,2-dichlorocyclopropyl)methyl]sulfonyl}azetidin-3-yl)-3-[1-(2-fluorophenyl)-1H-indazol-4-yl]imidazolidin-2-one], the values for the pIC50 on human Nav1.8 and at human Nav1.7 were 5.85 and 5.60, respectively.

Regarding `O=C1N(c2cccc3c2cnn3-c2ccccc2F)CCN1C1CN(S(=O)(=O)CC2CC2)C1` [Example 283, 1-{1-[(cyclopropylmethyl)sulfonyl]azetidin-3-yl}-3-[1-(2-fluorophenyl)-1H-indazol-4-yl]imidazolidin-2-one], the negative logarithm of the IC50 (pIC50) on human Nav1.8 is 5.66; at human Nav1.7 it was 5.59.

As for `O=C1N(c2cccc3c2cnn3-c2ccccc2F)CCN1C1CN(S(=O)(=O)CC(F)(F)F)C1` [Example 284, 1-[1-(2-fluorophenyl)-1H-indazol-4-yl]-3-{1-[(2,2,2-trifluoroethyl)sulfonyl]azetidin-3-yl}imidazolidin-2-one], the figures for the pIC50 at human Nav1.8 and on human Nav1.7 were 5.92 and 5.61, respectively.

With `CC(C)CS(=O)(=O)N1CC(N2CCN(c3cccc4c3cnn4-c3ccccc3F)C2=O)C1` [Example 285, 1-[1-(2-fluorophenyl)-1H-indazol-4-yl]-3-[1-(isobutylsulfonyl)azetidin-3-yl]imidazolidin-2-one], the pIC50 on human Nav1.8 is 5.83; at human Nav1.7 it was 5.60.

On to `CC(C)(C)OC(=O)CN1CCN(c2cccc3c2cnn3-c2ccccc2F)C1=O` [Example 286, tert-butyl {3-[1-(2-fluorophenyl)-1H-indazol-4-yl]-2-oxoimidazolidin-1-yl}acetate], for which the pIC50 on human Nav1.8 was 5.52; on human Nav1.7, 5.50.
